{"source": "patent US12048734B2", "about": "“Bioactive peptides and methods of use thereof” (OP-T LLC, priority 2020, dated 2024)", "key": {"[1]": {"test": "Preliminary toxicity study, single IV bolus, rats", "format": "in vivo", "conditions": "50 or 100 mg/kg bolus IV injection", "experimental": "(§1) In a preliminary toxicity study rats and dogs were given a single dose of OPT 101 as an IV bolus. […] When OPT101 was administered to beagle dogs at 50 or 100 mg/kg by bolus IV injection OPT101 was not tolerated due to adverse clinical signs, including prostration, slight salivation, decreased activities, purple or red skin colored in the abdomen ventral, lateral ears or conjunctiva(s), lips, or periorbital, soft stool, medium food-like, red/brown, or small and frothy vomitus, increased respiratory rate, and labored breathing. Clinical pathology effects included increases in leukocyte count, erythrocyte and platelet counts."}, "[2]": {"test": "Preliminary toxicity study, single IV bolus, beagle dogs", "format": "in vivo", "experimental": "as §1"}, "[3]": {"system": "human platelets", "test": "Human platelet aggregation in vitro by light transmission aggregometry", "format": "cell-based", "source_text": "It has been shown that using an anti-CD154 monoclonal therapeutic approach to interfere with the CD40-CD154 interaction there was efficacy in animal models, but in the clinical trial of one of the monoclonal antibodies there was binding to platelets resulting in emboli. Therefore, the clinical trials were halted (Kawai et al 2000, abstract). To determine if OPT101 has similar effects as the monoclonal antibody, an in vitro study was done with human platelets to determine if OPT101 would affect platelet aggregation, as measured by light transmission aggregometry. Platelet aggregation induced with adenosine diphosphate or collagen were not affected when treated with OPT101 at 0.1, 0.3, 3 or 30 μg/mL. […] Therefore, OPT101 had no impact on human platelet aggregation in vitro."}, "[4]": {"test": "Character of infusion reactions in the animal studies", "format": "in vivo", "source_text": "There was clear difference between the infusion reactions seen in the rats and dogs, and IgE-mediated anaphylaxis or other antigen-dependent hypersensitivity. IgE/antigen-dependent degranulation of mast cells is associated with a sustained release of larger and more heterogeneously shaped granule structures, whereas peptide-activated mast cells rapidly secrete small and relatively spherical granule structures (Gaudenzio 2016). […] In addition, the infusion reactions were also elicited by a scrambled version of OPT101 (same amino acids but in a different sequence), showing the reaction was not OPT101-dependent."}, "[5]": {"system": "bacterial mutation", "test": "Standard reverse bacterial mutation assay (Ames assay)", "source_text": "OPT101 was negative in the standard reverse bacterial mutation assay (Ames assay)."}, "[6]": {"test": "Single dose dog study focused on cardiovascular effects, 30-minute IV infusion", "format": "in vivo, dogs", "experimental": "Since some of the clinical signs were consistent with a drop in blood pressure, a single dose dog study was done, giving doses of 0.3, 1 or 100 mg/kg by a 30-minute IV infusion, and focused on cardiovascular effects. […] The 100 mg/kg group had much more severe clinical observations compared to 1 mg/kg. These effects were associated with decreases in blood pressure and heart rate for the dogs treated with 100 mg/kg. The blood pressure and heart rate returned to normal by 1 hour after end of infusion."}, "[7]": {"test": "8-week GLP repeat-dose toxicity study, 30-minute IV infusion, dogs", "format": "in vivo", "experimental": "Rats and dogs were treated once a week for 8-weeks, by 30-minute IV infusions. The PK of OPT101 was also determined following the first and last dose in each study."}, "[8]": {"test": "Single bolus IV dose histamine / immune mediator study in rats"}, "[9]": {"test": "8-week GLP repeat-dose toxicity study, 30-minute IV infusion, rats", "format": "in vivo", "experimental": "Due to these adverse effects in the rats and dogs after a bolus IV injection, the administration of OPT101 was changed to IV infusion over 30 minutes for the definitive GLP toxicity studies. Rats and dogs were treated once a week for 8-weeks, by 30-minute IV infusions. The PK of OPT101 was also determined following the first and last dose in each study. […] The no observable adverse effect level (NOAEL) for OPT101 was considered to be the […] level. […] Due to the incidence and severity of the infusion reactions, the clinical signs were considered adverse at 100 and 400 mg/kg, but because of the lower incidence and severity at 10 mg/kg, the effects at the 10 mg/kg were considered non-adverse."}, "[10]": {"conditions": "NDA 022150; cited from earlier work"}, "[11]": {"system": "CD3+CD4+CD40+(Th40) splenic cells", "test": "Overnight culture of Th40 splenic cells with KGYY6, inflammatory cytokines", "format": "cell-based, ApoE−/− mice", "conditions": "cultured overnight with varying concentrations of KGYY6; vs untreated cells", "experimental": "CD3+CD4+CD40+(Th40) splenic cells were purified from ApoE−/− with cardiovascular disease. The cells were cultured overnight in the absence/presence of varying concentrations of KGYY6 peptide."}, "[12]": {"test": "Glucose tolerance and insulin sensitivity after KGYY6", "format": "in vivo, ApoE −/−mice"}, "[13]": {"system": "conventional CD4 T cells", "test": "Intracellular IL-10 in conventional CD4 T cells ex-vivo at end of EAE experiment after KGYY6 treatment", "set-up": "species or system mice", "conditions": "draining lymph nodes (dLN); after 33 days; vs untreated animals; p=0.0145", "source_text": "FIG. 10 provides two graphs which show how KGYY-6 treatment alters IL-10 production by conventional CD4 T cells.\nIntracellular cytokine expression profiles were examined in conventional CD4 T cells immediately ex-vivo at the end of the EAE experiment, after 33 days."}, "[14]": {"system": "Th40 cells", "test": "Intracellular TGF in Th40 cells from ApoE−/− mice treated with KGYY6", "conditions": "ApoE−/− mice with cardiovascular disease treated with KGYY6 vs not treated; ex-vivo flow cytometry", "experimental": "Th40 cells were purified from ApoE−/−mice with cardiovascular disease as well as from ApoE−/−mice that were treated with KGYY6. Immediately ex-vivo, the cells were stained for CD3, CD4, and CD40 and intracellular TGF and analyzed by flow cytometry. Cells were gated on CD3 then CD4 and CD40 for Th40 cells then levels of TGF were assessed."}, "[15]": {"conditions": "50 and 100 mg/kg IV injection, vs pretest values"}, "[16]": {"conditions": "12.5 mg/kg bolus IV, 1-hour post-treatment"}}}
{"compound": "CSCC[C@H](NC(=O)[C@@H](NC(=O)[C@H](Cc1ccc(O)cc1)NC(=O)[C@H](Cc1ccc(O)cc1)NC(=O)CNC(=O)[C@H](CCCCN)NC(=O)[C@H](CCCCN)NC(=O)[C@H](C)NC(=O)[C@H](Cc1c[nH]c2ccccc12)NC(=O)[C@H](CCC(N)=O)NC(=O)[C@H](CC(C)C)NC(=O)[C@@H](N)C(C)C)[C@@H](C)O)C(=O)N[C@@H](CCCCN)C(=O)N[C@@H](CO)C(=O)N[C@@H](CC(N)=O)C(=O)O", "note": "[OPT101, VLQWAKKGYYTMKSN]", "values": [{"measurement": "mortality", "setting": "[1]", "result": "mortality of two rats"}, {"measurement": "tolerability", "setting": "[1]; single dose", "result": "did not tolerate the treatment"}, {"measurement": "assessment of clinical chemistry effects", "setting": "[2]; 100 mg/kg", "result": "adverse"}, {"measurement": "alanine aminotransferase, aspartate aminotransferase, alkaline phosphatase, γ-glutamyltransferase, urea, creatinine, calcium, phosphorus, total bilirubin, creatine kinase", "setting": "[2]; [15]", "result": "notable increases"}, {"measurement": "potassium", "setting": "[2]; [15]", "result": "decrease"}, {"measurement": "serum C5b-9 complement levels", "setting": "[2]; 50 or 100 mg/kg", "result": "no increases"}, {"measurement": "decrease of fibrinogen (down to)", "setting": "[2]; 50 or 100 mg/kg bolus IV", "result": 32, "unit": "%"}, {"measurement": "increase of prothrombin time", "setting": "[2]; 50 or 100 mg/kg bolus IV", "result": 288, "unit": "%"}, {"measurement": "leukocyte count, erythrocyte and platelet counts", "setting": "[2]; 50 or 100 mg/kg bolus IV", "result": "increases"}, {"measurement": "tolerability", "setting": "[2]; 50 or 100 mg/kg bolus IV injection, single dose", "result": "not tolerated"}, {"measurement": "histopathology evaluation of liver and kidney", "setting": "[2]; bolus IV", "result": "no liver or kidney lesions"}, {"measurement": "spontaneous platelet aggregation", "setting": "[3]; OPT101 at 30 μg/mL", "result": "no spontaneous platelet aggregation"}, {"measurement": "Platelet aggregation induced with adenosine diphosphate or collagen", "setting": "[3]; OPT101 at 0.1, 0.3, 3 or 30 μg/mL", "result": "not affected"}, {"measurement": "complement activation", "setting": "[4]", "result": "no evidence of complement activation"}, {"measurement": "duration of clinical signs and release of histamine", "setting": "[4]", "result": "very transient"}, {"measurement": "reverse bacterial mutation (Ames assay)", "setting": "[5]", "result": "negative"}, {"measurement": "clinical observations or physiological changes", "setting": "[6]; 0.3 mg/kg", "result": "no clinical observations or physiological changes"}, {"measurement": "blood pressure and heart rate", "setting": "[6]; 100 mg/kg", "result": "decreases"}, {"measurement": "time for blood pressure and heart rate to return to normal after end of infusion", "setting": "[6]; 100 mg/kg", "result": "≤ 1", "unit": "h"}, {"measurement": "serum levels of histamine", "setting": "[6]; 100 mg/kg, 5 and 30 minutes after start of infusion", "result": "significantly elevated"}, {"measurement": "body weight, food consumption, body temperature, respiratory rate and coagulation", "setting": "[6]; 0.3, 1 or 100 mg/kg, 30-minute IV infusion, single dose", "result": "no OPT101-related body weight, food consumption, body temperature, respiratory rate and coagulation changes"}, {"measurement": "histamine related clinical observations", "setting": "[6]; 1 and 100 mg/kg, much more severe at 100 mg/kg", "result": "salivation, vomitus, incontinence, discolored skin, swelling and rash"}, {"measurement": "no observable effect level (NOEL)", "setting": "[6]; single dose, 30-minute IV infusion", "result": 0.3, "unit": "mg/kg"}, {"measurement": "assessment of infusion reaction clinical signs", "setting": "[7]; 10 mg/kg", "result": "non-adverse"}, {"measurement": "plasma drug levels versus dose", "setting": "[7]; 8-week study, PK after first and last dose", "result": "increased with increasing dose"}, {"measurement": "infusion reactions, incidence", "setting": "[7]; 10, 100, or 400 mg/kg/dose", "result": "in all treated animals"}, {"measurement": "tolerability", "setting": "[7]; 10, 100, or 400 mg/kg/dose once a week for 8 weeks, 30-minute IV infusion", "result": "well tolerated"}, {"measurement": "assessment of infusion reaction clinical signs", "setting": "[7]; 100 and 400 mg/kg", "result": "adverse"}, {"measurement": "NOAEL", "setting": "[7]; dog, in vivo, dogs, infusion reaction, once weekly for 8 weeks, 30-minute IV infusion, read-out: no observable adverse effect level (NOAEL)", "result": 10, "unit": "mg/kg"}, {"measurement": "thromboemboli", "setting": "[7]; dogs, 8-week toxicology study", "result": "no evidence of thromboemboli"}, {"measurement": "toxicity other than infusion reaction", "setting": "[7]; dogs, up to highest dose of 400 mg/kg, once weekly for 8 weeks, 400 mg/kg", "result": "no other adverse effects"}, {"measurement": "drug accumulation", "setting": "[7]; over the 8-week study", "result": "no marked drug accumulation"}, {"measurement": "serum C3 levels (as measured by conversion to human SC5b-9)", "setting": "[8]; [16]", "result": "no decreases"}, {"measurement": "serum IFN-γ, TNF-α, IL-10, IL-4, IL-5, IL-6, IL-10, or IL-13 levels", "setting": "[8]; [16]", "result": "no changes"}, {"measurement": "serum histamine levels", "setting": "[8]; 12.5 mg/kg bolus IV, 10-minutes post-treatment", "result": "increased significantly"}, {"measurement": "clinical observation", "setting": "[8]; single bolus IV dose 12.5 mg/kg", "result": "consistent with a histamine reaction"}, {"measurement": "tolerability", "setting": "[9]; 10, 100 or 200 mg/kg/dose once a week for 8 weeks, 30-minute IV infusion", "result": "well tolerated and did not result in any adverse effects"}, {"measurement": "NOAEL", "setting": "[9]; rat, in vivo, rats, once weekly for 8 weeks, 30-minute IV infusion, read-out: no observable adverse effect level (NOAEL)", "result": 200, "unit": "mg/kg"}, {"measurement": "thromboemboli", "setting": "[9]; rats, 8-week toxicology study", "result": "no evidence of thromboemboli"}, {"measurement": "toxicity other than infusion reaction", "setting": "[9]; rats, up to highest dose of 200 mg/kg, once weekly for 8 weeks, 200 mg/kg", "result": "no other adverse effects"}]}
{"compound": "NC(N)=NCCC[C@@H](N)C(=O)N[C@@H](CCCN=C(N)N)C(=O)N1CCC[C@H]1C(=O)N1C[C@H](O)C[C@H]1C(=O)NCC(=O)N[C@@H](Cc1cccs1)C(=O)N[C@@H](CO)C(=O)N1Cc2ccccc2C[C@@H]1C(=O)N1[C@H](C(=O)N[C@@H](CCCN=C(N)N)C(=O)O)C[C@@H]2CCCC[C@@H]21", "note": "[icatibant]", "values": [{"measurement": "infusion reaction", "setting": "[10]", "result": "causes a reaction due to histamine release that is quickly reversed after end of infusion"}]}
{"compound": "AKKGYY [KGYY6]", "values": [{"measurement": "inflammatory cytokine IFNγ", "setting": "[11]", "result": "varying degrees of reduction"}, {"measurement": "inflammatory cytokine IL-2", "setting": "[11]", "result": "varying degrees of reduction"}, {"measurement": "inflammatory cytokine IL-17A", "setting": "[11]", "result": "varying degrees of reduction"}, {"measurement": "insulin sensitivity", "setting": "[12]; p<0.005", "result": "statistically significant improvement"}, {"measurement": "glucose tolerance", "setting": "[12]; p<0.05", "result": "statistically significant improvement"}, {"measurement": "intracellular IL-10 in conventional CD4 T cells", "setting": "[13]", "result": "increase in intracellular IL-10"}, {"measurement": "production of TGF (intracellular, Th40 cells)", "setting": "[14]", "result": "decrease production of TGF"}]}
{"compound": "YKNVKQMAYWLTGKS [scrambled version of OPT101, reference compound]", "values": [{"measurement": "infusion reactions", "setting": "[4]", "result": "also elicited"}]}
